# Laboratory results taken from US7605280B2, “Anthraquinone and its derivatives” (Biostatus Limited, priority 1998, dated 2009).
# Key:
# Granulocytes = test: FACScan (Cytometer C) flow cytometric analysis of DRAQ5-labelled cells; assay type: cell-based, human; details: 20 μM DRAQ5, 5 min
# Method: (§1) Suspension cultures were analysed by flow cytometry without washing. Human blood was obtained using routine venepuncture of a healthy donor and samples manipulated using standard haematological procedures for the isolation of mononuclear blood cells and surface antigen recognition using antibody panels (see Table 1).
# (§2) Cells were analysed using one of four flow cytometers according to the excitation requirements. • Cytometer A: Single beam high power 647 nm krypton laser excitation: The system was a custom-built cytometer and incorporated an Innova 3000K krypton laser (Coherent Corp., Palo Alto, Calif., USA) tuned to the 647 nm line. Forward light scatter, 90° light scatter and fluorescence emissions were collected for 1×10^4 cells using the 90° light scatter parameter as the master signal. The optical system permitted the analysis of various fluorescence emission wavelengths including: >715 nm (termed low infra-red) and, as reported here >780 nm fluorescence (infra-red ). Forward and 90° light scatter were analysed for the identification of cell debris. Laser power was set at 200 mW and linear amplifiers were used for the fluorescence signals. The analysis optics included a 675 nm cold dichroic mirror, ambient laboratory temperature was approximately 12° C. and the sheath reservoir was maintained at 10° C. Filters were supplied by Melles Griot. Median, mean and mode parameters were calculated for the distribution of fluorescence intensity-values throughout a given cell population. In all experiments, median and mean values produced very similar results. Median values alone are reported since this parameter is less affected by the presence of highly fluorescent cells beyond the upper limit for quantification. • Cytometer B: Dual beam low power 633 nm/high power 488 nm laser excitation: The system was a FACS 440 cell sorter (Becton Dickinson Inc., Cowley, UK) incorporating a Spectra Physics argon ion laser (max 500 mW output), tuned to the 488 nm line (100 mW output), and a secondary Spectra Physics 156 helium-neon laser emitting at 633 nm (emitting <5 mW), with a temporal beam separation of about 30 μsec. Forward light scatter, 90° light scatter and fluorescence emissions were collected for 1×10^4 cells using the forward light scatter parameter as the master signal from the primary 488 nm beam, while side scatter was collected through a 488/10 nm band-pass filter. The analysis optics included: i) a cold dichroic mirror (transmitting >675 nm), ii) fluorescence from fluorescein excited by the 488 nm beam detected at a PMT guarded by a 535/15 nm band-pass filter with no signal delay, and iii) a red-sensitive PMT with an appropriate delay, additionally guarded by a 620 nm long-pass filter, to detect the transmitted beam of DRAQ5-associated fluorescence at wavelengths beyond 675 nm (high-red and extending into the infra red region of the spectrum) Forward and 90° light scatter were analysed to exclude any cell debris. All parameters were acquired at 256 channel resolution with Consort 30 software (Becton Dickinson) and subsequently analysed with WinMDI software (J. Trotter, La Jolla, Calif.). The system employed the same analysis optics when used in the single 488 nm beam mode but with no signal delay for the red-sensitive PMT. • Cytometer C: Single beam, low power 488 nm laser excitation: The system was a FACScan (Becton Dickinson; Inc., Cowley, UK) incorporating an argon ion laser (max 15 mW output), tuned to the 488 nm line. Forward light scatter, 90° light scatter and fluorescence emissions were collected for 1×10^4 cells using the forward light scatter parameter as the master signal. The standard analysis optics provided the FL1 […]/FL3 (red) PMT parameters with pulse analysis performed on the FL3 originating signals. • Cytometer D: Triple beam medium power 633 nm/medium power 488 nm/medium power multiline-UV laser excitation: […]
# Lymphocytes = test: as above; assay type: cell-based, human
# Method: as §1, §2
# Monocytes = test: as above; assay type: cell-based, human
# Method: as §1, §2
# Solubility = assay type: physicochemical
# [1] = Preparation 3, 20 μM DRAQ5, 120 min
# [2] = Preparation 3, 4.8 × 10^5/ml, 20 μM DRAQ5, 5 min
# [3] = Preparation 3, 7.5 × 10^5/ml, 20 μM DRAQ5, 5 min
# [4] = Preparation 3 Ficoll-isolated viable mononuclear blood cells, 2.5 × 10^5/ml, 20 μM DRAQ5, 5 min
# [5] = Preparation 4 (Preparation 3 plus surface antigen analysis), 20 μM DRAQ5, 5 min
# [6] = Preparation 5 whole blood, viable cells, 20 μM DRAQ5, 5 min
# [7] = Preparation 6 whole blood, cells lysed and fixed, 20 μM DRAQ5, 5 min
smiles,measurement,setting,value
CN(C)CCNc1ccc(O)c2c1C(=O)c1c(O)ccc(NCCN(C)C)c1C2=O [DRAQ5],Mean fluorescence intensity (±sd) of gated population,"Granulocytes; Preparation 5 whole blood, viable cells",248.4 ± 35.9
same,Mean fluorescence intensity (±sd) of gated population,"Granulocytes; Preparation 6 whole blood, cells lysed and fixed",254.3 ± 31.1
same,Mean fluorescence intensity (±sd) of gated population,Lymphocytes; [1],299.1 ± 23.9
same,Mean fluorescence intensity (±sd) of gated population,Lymphocytes; [2],215.9 ± 26.3
same,Mean fluorescence intensity (±sd) of gated population,Lymphocytes; [3],234.1 ± 27.0
same,Mean fluorescence intensity (±sd) of gated population,Lymphocytes; [4],227.4 ± 24.5
same,Mean fluorescence intensity (±sd) of gated population,Lymphocytes; [5],261.6 ± 26.3
same,Mean fluorescence intensity (±sd) of gated population,Lymphocytes; [6],257.3 ± 35.0
same,Mean fluorescence intensity (±sd) of gated population,Lymphocytes; [7],228.5 ± 28.5
same,Mean fluorescence intensity (±sd) of gated population,Monocytes; [1],342.2 ± 22.4
same,Mean fluorescence intensity (±sd) of gated population,Monocytes; [2],301.8 ± 24.3
same,Mean fluorescence intensity (±sd) of gated population,Monocytes; [3],311.0 ± 30.9
same,Mean fluorescence intensity (±sd) of gated population,Monocytes; [4],302.9 ± 25.4
same,Mean fluorescence intensity (±sd) of gated population,Monocytes; [5],317.9 ± 27.3
same,Mean fluorescence intensity (±sd) of gated population,Monocytes; [6],274.6 ± 41.0
same,Mean fluorescence intensity (±sd) of gated population,Monocytes; [7],240.2 ± 28.1
same,enhanced staining potential of monocytes versus lymphocytes,Monocytes; Preparations 3 and 4,1.14-1.4 fold
same,solubility,Solubility,soluble in biologically compatible solvents including water
